Tested on: MDA-MB-231 multicell spheroids, viability
Assay: Anticancer human tumor MDA-MB-231 cell line growth inhibition [PI3K];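 also: spheroids exposed to agents for seven days before reading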;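 as to viability, T/C: percent of vehicle control luminescence with DMSO treated spheroids as 100%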
Settings: for IC50: curve of first compound; for viability, T/C: stronger effect = lower value; active = viability on the fitted dose curve at most 10% of control; inactive = the rest
Procedure, shortened: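 We assembled tumor spheroids that included a stromal compartment of HUVEC and MSCs, then exposed them to targeted agents alone and together with PI3K pathway inhibitors. Concentration series descended by half-log from clinically achievable Cmax levels. Viability served as the endpoint.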

[1] = second compound 0.00316 µM, first compound 0.0316 µM
[2] = second compound 0.00316 µM, first compound 0.1 µM
[3] = second compound 0.00316 µM, first compound 0.316 µM
[4] = second compound 0.00316 µM, first compound 1 µM
[5] = second compound 0.00316 µM, first compound 3.16 µM
[6] = second compound 0.00316 µM, first compound 10 µM
[7] = second compound 0.01 µM, first compound 0.0316 µM
[8] = second compound 0.01 µM, first compound 0.1 µM
[9] = second compound 0.01 µM, first compound 0.316 µM
[10] = second compound 0.01 µM, first compound 1 µM
[11] = second compound 0.01 µM, first compound 3.16 µM
[12] = second compound 0.01 µM, first compound 10 µM
[13] = second compound 0.0316 µM, first compound 0.0316 µM
[14] = second compound 0.0316 µM, first compound 0.1 µM
[15] = second compound 0.0316 µM, first compound 0.316 µM
[16] = second compound 0.0316 µM, first compound 1 µM
[17] = second compound 0.0316 µM, first compound 3.16 µM
[18] = second compound 0.0316 µM, first compound 10 µM
[19] = second compound 0.1 µM, first compound 0.0316 µM
[20] = second compound 0.1 µM, first compound 0.1 µM
[21] = second compound 0.1 µM, first compound 0.316 µM
[22] = second compound 0.1 µM, first compound 1 µM
[23] = second compound 0.1 µM, first compound 3.16 µM
[24] = second compound 0.1 µM, first compound 10 µM
[25] = second compound 0.316 µM, first compound 0.0316 µM
[26] = second compound 0.316 µM, first compound 0.1 µM
[27] = second compound 0.316 µM, first compound 0.316 µM
[28] = second compound 0.316 µM, first compound 1 µM
[29] = second compound 0.316 µM, first compound 3.16 µM
[30] = second compound 0.316 µM, first compound 10 µM
[31] = second compound 1 µM, first compound 0.0316 µM
[32] = second compound 1 µM, first compound 0.1 µM
[33] = second compound 1 µM, first compound 0.316 µM
[34] = second compound 1 µM, first compound 1 µM
[35] = second compound 1 µM, first compound 3.16 µM
[36] = second compound 1 µM, first compound 10 µM

CC1(C)CCC(CN2CCN(c3ccc(C(=O)NS(=O)(=O)c4ccc(NCC5CCOCC5)c([N+](=O)[O-])c4)c(Oc4cnc5[nH]ccc5c4)c3)CC2)=C(c2ccc(Cl)cc2)C1 + COc1c(OCCCN2CCOCC2)ccc2c3n(c(=NC(=O)c4cnc(N)nc4)nc12)CCN3
< 31.6 nM: IC50 (second compound 0.1 µM) | IC50 (second compound 0.316 µM) | IC50 (second compound 1 µM)
> 10000 nM: IC50 (second compound 0.00316 µM) | IC50 (second compound 0.01 µM) | IC50 (second compound 0.0316 µM)
inactive: viability, T/C [1] 100% | viability, T/C [2] 96.4% | viability, T/C [3] 96.8% | viability, T/C [4] 104% | viability, T/C [5] 102% | viability, T/C [6] 104% | viability, T/C [7] 82.1% | viability, T/C [8] 80.1% | viability, T/C [9] 85% | viability, T/C [10] 91.1% | viability, T/C [11] 85.2% | viability, T/C [12] 83.9% | viability, T/C [13] 65.9% | viability, T/C [14] 66.4% | viability, T/C [15] 65.2% | viability, T/C [16] 65.7% | viability, T/C [17] 67.4% | viability, T/C [18] 66.5% | viability, T/C [19] 46.2% | viability, T/C [20] 45.6% | viability, T/C [21] 48.1% | viability, T/C [22] 47.7% | viability, T/C [23] 48.9% | viability, T/C [24] 44.9% | viability, T/C [25] 35.6% | viability, T/C [26] 34.8% | viability, T/C [27] 36.1% | viability, T/C [28] 35.3% | viability, T/C [29] 35.8% | viability, T/C [30] 33.6% | viability, T/C [31] 25.7% | viability, T/C [32] 26.2% | viability, T/C [33] 24.5% | viability, T/C [34] 23.9% | viability, T/C [35] 25.1% | viability, T/C [36] 22.2%

C[C@@H](NC(=O)c1ncnc(N)c1Cl)c1ncc(C(=O)Nc2cc(C(F)(F)F)c(Cl)cn2)s1 + COc1c(OCCCN2CCOCC2)ccc2c3n(c(=NC(=O)c4cnc(N)nc4)nc12)CCN3
1730 nM: IC50 (second compound 0.0316 µM)
136 nM: IC50 (second compound 0.1 µM)
< 31.6 nM: IC50 (second compound 0.316 µM) | IC50 (second compound 1 µM)
inactive: viability, T/C [1] 123% | viability, T/C [2] 110% | viability, T/C [3] 100% | viability, T/C [4] 84.2% | viability, T/C [5] 71% | viability, T/C [6] 59.1% | viability, T/C [7] 108% | viability, T/C [8] 90.4% | viability, T/C [9] 81.6% | viability, T/C [10] 65.7% | viability, T/C [11] 59.8% | viability, T/C [12] 52.5% | viability, T/C [13] 75.9% | viability, T/C [14] 72.9% | viability, T/C [15] 61.5% | viability, T/C [16] 54.5% | viability, T/C [17] 45.9% | viability, T/C [18] 39.9% | viability, T/C [19] 61% | viability, T/C [20] 49.6% | viability, T/C [21] 45.4% | viability, T/C [22] 39.4% | viability, T/C [23] 34.2% | viability, T/C [24] 28.3% | viability, T/C [25] 38.8% | viability, T/C [26] 35.3% | viability, T/C [27] 29.4% | viability, T/C [28] 23.4% | viability, T/C [29] 20.3% | viability, T/C [30] 15.9% | viability, T/C [31] 33.4% | viability, T/C [32] 25.4% | viability, T/C [33] 23.2% | viability, T/C [34] 18.2% | viability, T/C [35] 15.3% | viability, T/C [36] 10.6%
> 10000 nM: IC50 (second compound 0.00316 µM) | IC50 (second compound 0.01 µM)

Cn1ncnc1[C@H]1c2n[nH]c(=O)c3cc(F)cc(c23)N[C@@H]1c1ccc(F)cc1 + COc1c(OCCCN2CCOCC2)ccc2c3n(c(=NC(=O)c4cnc(N)nc4)nc12)CCN3
inactive: viability, T/C (second compound 0.00316 µM, first compound 0.000316 µM) 94% | viability, T/C (second compound 0.00316 µM, first compound 0.001 µM) 89.6% | viability, T/C (second compound 0.00316 µM, first compound 0.00316 µM) 91.4% | viability, T/C (second compound 0.00316 µM, first compound 0.01 µM) 78.5% | viability, T/C [1] 78.5% | viability, T/C [2] 72.9% | viability, T/C (second compound 0.01 µM, first compound 0.000316 µM) 76.4% | viability, T/C (second compound 0.01 µM, first compound 0.001 µM) 76.7% | viability, T/C (second compound 0.01 µM, first compound 0.00316 µM) 68.9% | viability, T/C (second compound 0.01 µM, first compound 0.01 µM) 64.8% | viability, T/C [7] 67.2% | viability, T/C [8] 60.3% | viability, T/C (second compound 0.0316 µM, first compound 0.000316 µM) 57.8% | viability, T/C (second compound 0.0316 µM, first compound 0.001 µM) 59.2% | viability, T/C (second compound 0.0316 µM, first compound 0.00316 µM) 53.8% | viability, T/C (second compound 0.0316 µM, first compound 0.01 µM) 53.5% | viability, T/C [13] 51.7% | viability, T/C [14] 46.1% | viability, T/C (second compound 0.1 µM, first compound 0.000316 µM) 46.4% | viability, T/C (second compound 0.1 µM, first compound 0.001 µM) 46.6% | viability, T/C (second compound 0.1 µM, first compound 0.00316 µM) 43% | viability, T/C (second compound 0.1 µM, first compound 0.01 µM) 43.7% | viability, T/C [19] 39.7% | viability, T/C [20] 37.5% | viability, T/C (second compound 0.316 µM, first compound 0.000316 µM) 31.8% | viability, T/C (second compound 0.316 µM, first compound 0.001 µM) 32.3% | viability, T/C (second compound 0.316 µM, first compound 0.00316 µM) 32.4% | viability, T/C (second compound 0.316 µM, first compound 0.01 µM) 29.6% | viability, T/C [25] 30.1% | viability, T/C [26] 25.7% | viability, T/C (second compound 1 µM, first compound 0.000316 µM) 24.4% | viability, T/C (second compound 1 µM, first compound 0.001 µM) 23.5% | viability, T/C (second compound 1 µM, first compound 0.00316 µM) 24.6% | viability, T/C (second compound 1 µM, first compound 0.01 µM) 23.5% | viability, T/C [31] 25.7% | viability, T/C [32] 22.4%
< 0.316 nM: IC50 (second compound 0.1 µM) | IC50 (second compound 0.316 µM) | IC50 (second compound 1 µM)
38.4 nM: IC50 (second compound 0.0316 µM)
> 100 nM: IC50 (second compound 0.00316 µM) | IC50 (second compound 0.01 µM)

— PubChem BioAssay AID1963958 (Molecular Pharmacology Branch, DTP, NCI, 2024)
